# Experimental data from ChEMBL document CHEMBL1201862, “PubChem BioAssay data set” (2004).
#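 Grown in 96-well plates, cells were treated for 48 hours with each compound at five concentrations. Insufficient inhibition: endpoint recorded as highest concentration tested. At the GI50, growth is halved.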 Calls of active or inactive are those of the source. Rule as the data show it: active = GI50 up to about 1.1 µM and inactive = higher.
# What was measured:
# Experiment in all cases: DTP human tumour cell line panel, 48 h
# 786-0 = test system: 786-0
# A498 = test system: A498
# A549 = test system: A549
# ACHN = test system: ACHN
# CAKI-1 = test system: CAKI-1
# CCRF-CEM = test system: CCRF-CEM
# COLO 205 = test system: COLO 205
# DLD-1 = test system: DLD-1
# DMS-114 = test system: DMS-114
# DMS-273 = test system: DMS-273
# EKVX = test system: EKVX
# HCC 2998 = test system: HCC 2998
# HCT-116 = test system: HCT-116
# HCT-15 = test system: HCT-15
# HL-60 = test system: HL-60
# HOP-18 = test system: HOP-18
# HOP-62 = test system: HOP-62
# HOP-92 = test system: HOP-92
# HT-29 = test system: HT-29
# IGROV-1 = test system: IGROV-1
# K562 = test system: K562
# KM-20L2 = test system: KM-20L2
# KM12 = test system: KM12
# LOX IMVI = test system: LOX IMVI
# LXFL 529 = test system: LXFL 529
# M14 = test system: M14
# M19-MEL = test system: M19-MEL
# MOLT-4 = test system: MOLT-4
# Malme-3M = test system: Malme-3M
# NCI-H226 = test system: NCI-H226
# NCI-H23 = test system: NCI-H23
# NCI-H460 = test system: NCI-H460
# NCI-H522 = test system: NCI-H522
# OVCAR-3 = test system: OVCAR-3
# OVCAR-4 = test system: OVCAR-4
# OVCAR-5 = test system: OVCAR-5
# OVCAR-8 = test system: OVCAR-8
# RXF 393 = test system: RXF 393
# SF-268 = test system: SF-268
# SF-295 = test system: SF-295
# SF-539 = test system: SF-539
# SK-MEL-28 = test system: SK-MEL-28
# SK-MEL-2 = test system: SK-MEL-2
# SK-MEL-5 = test system: SK-MEL-5
# SK-OV-3 = test system: SK-OV-3
# SN12C = test system: SN12C
# SNB-19 = test system: SNB-19
# SNB-75 = test system: SNB-75
# SNB-78 = test system: SNB-78
# SW-620 = test system: SW-620
# TK-10 = test system: TK-10
# U-251 = test system: U-251
# UACC-257 = test system: UACC-257
# UACC-62 = test system: UACC-62
# UO-31 = test system: UO-31
# XF498 = test system: XF498
# RPMI-8226 = test system: RPMI-8226
# RXF 631 = test system: RXF 631
# SR = test system: SR
structure (smiles),measurement,setting,value
Clc1ccc(/C=C/c2csnn2)cc1,GI50,786-0,> 100 µM (inactive)
same,GI50,A498,> 100 µM (inactive)
same,GI50,A549,> 100 µM (inactive)
same,GI50,ACHN,> 100 µM (inactive)
same,GI50,CAKI-1,> 100 µM (inactive)
same,GI50,CCRF-CEM,> 100 µM (inactive)
same,GI50,COLO 205,> 100 µM (inactive)
same,GI50,DLD-1,> 100 µM (inactive)
same,GI50,DMS-114,> 100 µM (inactive)
same,GI50,DMS-273,> 100 µM (inactive)
same,GI50,EKVX,> 100 µM (inactive)
same,GI50,HCC 2998,> 100 µM (inactive)
same,GI50,HCT-116,> 100 µM (inactive)
same,GI50,HCT-15,> 100 µM
same,GI50,HL-60,> 100 µM (inactive)
same,GI50,HOP-18,> 100 µM (inactive)
same,GI50,HOP-62,> 100 µM (inactive)
same,GI50,HOP-92,27.1 µM (inactive)
same,GI50,HT-29,> 100 µM (inactive)
same,GI50,IGROV-1,> 100 µM (inactive)
same,GI50,K562,> 100 µM (inactive)
same,GI50,KM-20L2,> 100 µM (inactive)
same,GI50,KM12,> 100 µM (inactive)
same,GI50,LOX IMVI,> 100 µM (inactive)
same,GI50,LXFL 529,> 100 µM (inactive)
same,GI50,M14,> 100 µM (inactive)
same,GI50,M19-MEL,> 100 µM (inactive)
same,GI50,MOLT-4,> 100 µM (inactive)
same,GI50,Malme-3M,> 100 µM (inactive)
same,GI50,NCI-H226,> 100 µM (inactive)
same,GI50,NCI-H23,> 100 µM (inactive)
same,GI50,NCI-H460,> 100 µM (inactive)
same,GI50,NCI-H522,> 100 µM (inactive)
same,GI50,OVCAR-3,> 100 µM (inactive)
same,GI50,OVCAR-4,> 100 µM (inactive)
same,GI50,OVCAR-5,> 100 µM (inactive)
same,GI50,OVCAR-8,> 100 µM (inactive)
same,GI50,RXF 393,> 100 µM (inactive)
same,GI50,SF-268,> 100 µM (inactive)
same,GI50,SF-295,> 100 µM (inactive)
same,GI50,SF-539,> 100 µM (inactive)
same,GI50,SK-MEL-28,> 100 µM (inactive)
same,GI50,SK-MEL-2,> 100 µM (inactive)
same,GI50,SK-MEL-5,> 100 µM (inactive)
same,GI50,SK-OV-3,> 100 µM (inactive)
same,GI50,SN12C,> 100 µM (inactive)
same,GI50,SNB-19,> 100 µM (inactive)
same,GI50,SNB-75,> 100 µM (inactive)
same,GI50,SNB-78,> 100 µM (inactive)
same,GI50,SW-620,> 100 µM (inactive)
same,GI50,TK-10,> 100 µM (inactive)
same,GI50,U-251,> 100 µM (inactive)
same,GI50,UACC-257,> 100 µM (inactive)
same,GI50,UACC-62,> 100 µM (inactive)
same,GI50,UO-31,> 100 µM (inactive)
same,GI50,XF498,> 100 µM (inactive)
CCCN(CCC)C1CC(n2cc(C)c(=O)[nH]c2=O)OC1CO (centres undefined),GI50,786-0,> 100 µM (inactive)
same,GI50,ACHN,> 100 µM (inactive)
same,GI50,CAKI-1,> 100 µM (inactive)
same,GI50,CCRF-CEM,> 100 µM (inactive)
same,GI50,COLO 205,> 100 µM (inactive)
same,GI50,DLD-1,> 100 µM (inactive)
same,GI50,DMS-114,> 100 µM (inactive)
same,GI50,DMS-273,> 100 µM (inactive)
same,GI50,HCC 2998,> 100 µM (inactive)
same,GI50,HCT-116,> 100 µM (inactive)
same,GI50,HL-60,> 100 µM (inactive)
same,GI50,HOP-62,> 100 µM (inactive)
same,GI50,HOP-92,> 100 µM (inactive)
same,GI50,IGROV-1,> 100 µM (inactive)
same,GI50,K562,> 100 µM (inactive)
same,GI50,LXFL 529,> 100 µM (inactive)
same,GI50,M14,> 100 µM (inactive)
same,GI50,M19-MEL,> 100 µM (inactive)
same,GI50,MOLT-4,> 100 µM (inactive)
same,GI50,Malme-3M,> 100 µM (inactive)
same,GI50,NCI-H226,> 100 µM (inactive)
same,GI50,NCI-H23,> 100 µM (inactive)
same,GI50,NCI-H460,> 100 µM (inactive)
same,GI50,NCI-H522,> 100 µM (inactive)
same,GI50,OVCAR-4,> 100 µM (inactive)
same,GI50,RPMI-8226,> 100 µM (inactive)
same,GI50,RXF 631,> 100 µM (inactive)
same,GI50,SF-268,> 100 µM (inactive)
same,GI50,SF-539,> 100 µM (inactive)
same,GI50,SK-MEL-28,> 100 µM (inactive)
same,GI50,SK-MEL-2,> 100 µM (inactive)
same,GI50,SK-OV-3,> 100 µM (inactive)
same,GI50,SN12C,> 100 µM (inactive)
same,GI50,SNB-75,> 100 µM (inactive)
same,GI50,SNB-78,> 100 µM (inactive)
same,GI50,SR,> 100 µM (inactive)
same,GI50,UACC-62,> 100 µM (inactive)
same,GI50,UO-31,> 100 µM (inactive)
